Blank lines part the entries; values can stand above or below the compound they belong to.
How the values were obtained:
[1] = target: NT-3 growth factor receptor (Homo sapiens, UniProt Q16288); conditions: at 10 µM
[2] = target: Serine/threonine-protein kinase MARK1 (Homo sapiens) (UniProt Q9P0L2); assay: Selectivity interaction (Ambit KINOMEscan and KiNATiv profiling in Jurkat cells) EUB0000090b MARK1; type: cell-based; conditions: at 1 µM
[3] = target: Rho-associated protein kinase 2 (Homo sapiens, UniProt O75116); assay: Selectivity interaction (Ambit KINOMEscan and KiNATiv profiling in Jurkat cells) EUB0000090b ROCK2; type: cell-based; conditions: at 1 µM
[4] = target: T1, Ephrin type-A receptor 6 (Homo sapiens) (UniProt Q9UF33); assay: Selectivity interaction (KinomeScan (DiscoverX)) EUB0000655a EPHA6; conditions: at 10 µM
T1 sequence (whole entry): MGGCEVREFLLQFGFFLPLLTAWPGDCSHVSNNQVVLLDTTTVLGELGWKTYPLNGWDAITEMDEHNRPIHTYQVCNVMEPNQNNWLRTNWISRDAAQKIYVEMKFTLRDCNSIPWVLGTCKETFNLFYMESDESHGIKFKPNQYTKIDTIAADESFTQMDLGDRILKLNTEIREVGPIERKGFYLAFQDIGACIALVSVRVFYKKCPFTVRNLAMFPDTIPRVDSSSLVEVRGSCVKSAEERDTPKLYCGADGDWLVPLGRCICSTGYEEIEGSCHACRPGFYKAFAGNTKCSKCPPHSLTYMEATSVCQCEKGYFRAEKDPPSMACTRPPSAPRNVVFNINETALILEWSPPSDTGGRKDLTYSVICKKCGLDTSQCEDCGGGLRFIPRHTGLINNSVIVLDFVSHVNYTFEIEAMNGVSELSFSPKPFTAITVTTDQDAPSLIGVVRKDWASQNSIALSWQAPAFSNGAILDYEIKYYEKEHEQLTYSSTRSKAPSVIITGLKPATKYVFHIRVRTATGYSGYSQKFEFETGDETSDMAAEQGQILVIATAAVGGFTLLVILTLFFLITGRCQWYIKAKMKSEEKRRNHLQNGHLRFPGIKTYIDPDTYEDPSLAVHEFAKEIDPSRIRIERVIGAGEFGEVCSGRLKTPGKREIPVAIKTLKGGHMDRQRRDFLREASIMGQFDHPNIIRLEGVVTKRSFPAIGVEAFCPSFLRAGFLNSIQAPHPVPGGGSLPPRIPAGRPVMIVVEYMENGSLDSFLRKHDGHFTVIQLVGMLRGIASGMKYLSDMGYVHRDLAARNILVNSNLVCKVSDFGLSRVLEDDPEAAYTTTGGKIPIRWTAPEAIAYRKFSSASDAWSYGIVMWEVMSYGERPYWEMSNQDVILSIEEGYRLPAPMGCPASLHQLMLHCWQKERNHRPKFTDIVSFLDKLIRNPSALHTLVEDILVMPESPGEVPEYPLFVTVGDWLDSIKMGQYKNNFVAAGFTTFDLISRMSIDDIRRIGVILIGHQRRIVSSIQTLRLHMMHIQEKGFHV

[5] = target: T2, Kinase suppressor of Ras 1 (Homo sapiens) (UniProt Q8IVT5); assay: Selectivity interaction (ActivX KiNativ screen (ex vivo kinase selectivity in human PBMCs)) EUB0001619a KSR1; type: cell-based; conditions: PBMC, at 1 µM
T2 sequence (whole entry): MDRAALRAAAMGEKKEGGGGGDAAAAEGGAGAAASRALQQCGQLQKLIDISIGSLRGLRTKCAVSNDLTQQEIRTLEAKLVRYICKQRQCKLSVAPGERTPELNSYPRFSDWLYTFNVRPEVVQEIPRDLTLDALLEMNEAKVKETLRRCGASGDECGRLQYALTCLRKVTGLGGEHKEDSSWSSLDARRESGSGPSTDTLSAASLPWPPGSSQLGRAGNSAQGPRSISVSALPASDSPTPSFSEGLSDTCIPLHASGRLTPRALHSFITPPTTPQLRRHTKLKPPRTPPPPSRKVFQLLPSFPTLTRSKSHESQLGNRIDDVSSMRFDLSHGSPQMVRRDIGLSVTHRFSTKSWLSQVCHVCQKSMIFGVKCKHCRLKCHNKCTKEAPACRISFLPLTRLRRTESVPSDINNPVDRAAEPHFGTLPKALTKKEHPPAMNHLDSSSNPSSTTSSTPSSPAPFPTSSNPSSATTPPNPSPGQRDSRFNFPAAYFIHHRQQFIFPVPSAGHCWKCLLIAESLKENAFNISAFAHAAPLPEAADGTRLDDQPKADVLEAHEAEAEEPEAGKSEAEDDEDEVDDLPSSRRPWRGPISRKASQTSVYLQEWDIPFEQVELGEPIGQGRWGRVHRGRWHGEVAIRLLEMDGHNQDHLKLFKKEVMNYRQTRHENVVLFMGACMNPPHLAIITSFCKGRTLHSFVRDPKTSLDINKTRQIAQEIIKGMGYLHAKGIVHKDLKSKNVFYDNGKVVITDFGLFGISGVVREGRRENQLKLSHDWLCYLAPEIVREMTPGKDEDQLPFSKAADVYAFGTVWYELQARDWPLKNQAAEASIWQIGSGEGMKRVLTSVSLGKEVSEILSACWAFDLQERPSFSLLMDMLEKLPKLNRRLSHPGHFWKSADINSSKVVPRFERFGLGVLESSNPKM

[6] = target: Dual specificity mitogen-activated protein kinase kinase 1 (Homo sapiens, UniProt Q02750); assay: Selectivity interaction (Kinase panel (KiNativ target engagement assay in Jurkat cells)) EUB0001635a MAP2K1; type: cell-based; conditions: Selectivity number of off-targets 0.0, Selectivity number of targets 233.0, Source Knowledge https://www.sciencedirect.com/science/article/pii/S2451945619300674?via%3Dihub, at 1 µM
[7] = target: Calcium/calmodulin-dependent protein kinase type 1 (Homo sapiens) (UniProt Q14012); assay: Selectivity interaction (ActivX KiNativ screen (kinase selectivity in THP-1 cell lysates)) EUB0000639a CAMK1; type: subcellular; conditions: lysate, at 0.2 µM
[8] = target: MAP kinase-interacting serine/threonine-protein kinase 2 (Homo sapiens, UniProt Q9HBH9)
KCNE1 = KCNE1 (Homo sapiens, UniProt P15382); assay: Selectivity interaction (Panel of kinases, GPCRs, ion channels and transporters (enzymatic assay)) EUB0000266bCl KCNE1
[9] = target: Serine/threonine-protein kinase N1 (Homo sapiens, UniProt Q16512); assay: Selectivity interaction (KinomeScan (DiscoverX)) EUB0000695a PKN1; conditions: at 100 nM
Chain of Serine/threonine-protein kinase N1 (Q16512 2-942 limits assumed): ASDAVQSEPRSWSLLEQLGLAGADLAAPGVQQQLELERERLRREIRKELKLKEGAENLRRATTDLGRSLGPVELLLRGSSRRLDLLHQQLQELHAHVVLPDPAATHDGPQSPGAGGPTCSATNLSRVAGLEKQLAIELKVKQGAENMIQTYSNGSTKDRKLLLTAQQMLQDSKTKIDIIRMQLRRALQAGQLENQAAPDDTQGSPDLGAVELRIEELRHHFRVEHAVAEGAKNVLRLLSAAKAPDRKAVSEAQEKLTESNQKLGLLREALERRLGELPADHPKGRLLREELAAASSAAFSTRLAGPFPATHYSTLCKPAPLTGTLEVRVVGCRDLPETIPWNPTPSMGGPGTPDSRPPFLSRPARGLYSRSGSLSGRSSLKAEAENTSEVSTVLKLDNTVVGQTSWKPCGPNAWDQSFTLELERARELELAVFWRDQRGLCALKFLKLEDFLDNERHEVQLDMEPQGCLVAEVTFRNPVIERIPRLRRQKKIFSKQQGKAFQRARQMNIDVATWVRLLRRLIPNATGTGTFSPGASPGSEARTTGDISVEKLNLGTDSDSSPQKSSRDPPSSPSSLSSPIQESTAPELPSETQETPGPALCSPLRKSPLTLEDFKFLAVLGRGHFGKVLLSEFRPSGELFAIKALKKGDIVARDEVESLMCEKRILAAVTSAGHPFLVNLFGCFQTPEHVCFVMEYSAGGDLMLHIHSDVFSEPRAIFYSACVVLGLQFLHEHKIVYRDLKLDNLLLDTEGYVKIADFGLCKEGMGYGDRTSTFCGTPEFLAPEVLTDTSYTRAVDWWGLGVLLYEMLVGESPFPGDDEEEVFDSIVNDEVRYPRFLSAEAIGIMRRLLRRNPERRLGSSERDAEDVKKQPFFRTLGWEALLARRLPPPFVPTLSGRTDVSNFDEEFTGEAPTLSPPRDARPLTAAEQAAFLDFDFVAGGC

Chain of Rho-associated protein kinase 2 (O75116 whole entry, looked up): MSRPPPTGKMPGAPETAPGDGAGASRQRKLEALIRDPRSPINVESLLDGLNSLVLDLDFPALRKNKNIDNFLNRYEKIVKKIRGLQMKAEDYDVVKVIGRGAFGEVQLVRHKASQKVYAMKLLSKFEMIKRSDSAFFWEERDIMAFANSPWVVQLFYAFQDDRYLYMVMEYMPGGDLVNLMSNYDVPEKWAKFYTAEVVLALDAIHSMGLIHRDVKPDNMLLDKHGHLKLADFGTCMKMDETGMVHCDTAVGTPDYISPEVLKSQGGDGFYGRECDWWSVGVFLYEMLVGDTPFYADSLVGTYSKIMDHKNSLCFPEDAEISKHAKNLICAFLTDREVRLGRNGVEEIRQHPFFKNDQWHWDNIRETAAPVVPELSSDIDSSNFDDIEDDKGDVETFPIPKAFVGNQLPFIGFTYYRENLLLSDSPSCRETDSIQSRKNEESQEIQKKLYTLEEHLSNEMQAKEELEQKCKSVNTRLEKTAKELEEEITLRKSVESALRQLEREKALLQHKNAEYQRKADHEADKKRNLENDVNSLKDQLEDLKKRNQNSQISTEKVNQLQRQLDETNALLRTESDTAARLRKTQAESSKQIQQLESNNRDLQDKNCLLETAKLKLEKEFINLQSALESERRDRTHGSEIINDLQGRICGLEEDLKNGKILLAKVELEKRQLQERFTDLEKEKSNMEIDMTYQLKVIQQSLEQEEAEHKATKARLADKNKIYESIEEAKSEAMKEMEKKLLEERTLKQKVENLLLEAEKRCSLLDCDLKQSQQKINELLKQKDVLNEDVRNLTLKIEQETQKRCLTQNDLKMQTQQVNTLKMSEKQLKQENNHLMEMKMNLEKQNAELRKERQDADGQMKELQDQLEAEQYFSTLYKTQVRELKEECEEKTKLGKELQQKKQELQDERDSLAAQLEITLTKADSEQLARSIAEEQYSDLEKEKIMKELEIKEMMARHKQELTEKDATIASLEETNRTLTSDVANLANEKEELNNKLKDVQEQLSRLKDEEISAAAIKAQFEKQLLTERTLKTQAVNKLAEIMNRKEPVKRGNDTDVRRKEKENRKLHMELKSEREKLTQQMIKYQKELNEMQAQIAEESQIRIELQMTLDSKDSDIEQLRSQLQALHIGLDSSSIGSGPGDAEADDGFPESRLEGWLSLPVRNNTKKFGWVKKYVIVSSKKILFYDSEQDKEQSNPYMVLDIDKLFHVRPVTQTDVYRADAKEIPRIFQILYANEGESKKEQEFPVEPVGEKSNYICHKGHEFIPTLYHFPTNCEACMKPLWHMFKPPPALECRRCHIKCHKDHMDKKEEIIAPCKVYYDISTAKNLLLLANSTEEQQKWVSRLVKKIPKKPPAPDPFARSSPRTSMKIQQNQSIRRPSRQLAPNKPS
Chain of Dual specificity mitogen-activated protein kinase kinase 1 (Q02750 whole entry): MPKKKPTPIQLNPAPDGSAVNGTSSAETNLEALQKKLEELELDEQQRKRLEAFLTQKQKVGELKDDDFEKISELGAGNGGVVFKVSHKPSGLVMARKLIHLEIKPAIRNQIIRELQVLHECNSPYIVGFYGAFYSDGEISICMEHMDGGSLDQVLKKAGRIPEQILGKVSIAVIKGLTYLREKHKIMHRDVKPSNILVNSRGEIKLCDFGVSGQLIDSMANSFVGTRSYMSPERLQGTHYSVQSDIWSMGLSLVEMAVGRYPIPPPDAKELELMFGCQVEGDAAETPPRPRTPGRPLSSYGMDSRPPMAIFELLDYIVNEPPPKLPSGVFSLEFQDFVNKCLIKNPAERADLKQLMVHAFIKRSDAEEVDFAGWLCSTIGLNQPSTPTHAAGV
Chain of MAP kinase-interacting serine/threonine-protein kinase 2 (Q9HBH9 whole entry): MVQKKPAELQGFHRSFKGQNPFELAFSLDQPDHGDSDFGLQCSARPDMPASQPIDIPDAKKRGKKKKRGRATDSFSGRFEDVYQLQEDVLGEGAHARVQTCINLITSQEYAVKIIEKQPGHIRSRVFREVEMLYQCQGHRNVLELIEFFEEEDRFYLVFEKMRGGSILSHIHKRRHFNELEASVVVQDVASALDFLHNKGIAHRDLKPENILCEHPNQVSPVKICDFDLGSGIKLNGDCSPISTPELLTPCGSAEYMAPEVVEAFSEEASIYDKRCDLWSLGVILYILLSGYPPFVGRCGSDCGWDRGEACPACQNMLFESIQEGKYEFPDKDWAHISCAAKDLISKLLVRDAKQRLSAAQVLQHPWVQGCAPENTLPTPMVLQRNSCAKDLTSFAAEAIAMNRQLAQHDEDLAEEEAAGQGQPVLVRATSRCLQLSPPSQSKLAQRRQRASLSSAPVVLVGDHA
Chain of Calcium/calmodulin-dependent protein kinase type 1 (Homo sapiens) (Q14012 whole entry, looked up): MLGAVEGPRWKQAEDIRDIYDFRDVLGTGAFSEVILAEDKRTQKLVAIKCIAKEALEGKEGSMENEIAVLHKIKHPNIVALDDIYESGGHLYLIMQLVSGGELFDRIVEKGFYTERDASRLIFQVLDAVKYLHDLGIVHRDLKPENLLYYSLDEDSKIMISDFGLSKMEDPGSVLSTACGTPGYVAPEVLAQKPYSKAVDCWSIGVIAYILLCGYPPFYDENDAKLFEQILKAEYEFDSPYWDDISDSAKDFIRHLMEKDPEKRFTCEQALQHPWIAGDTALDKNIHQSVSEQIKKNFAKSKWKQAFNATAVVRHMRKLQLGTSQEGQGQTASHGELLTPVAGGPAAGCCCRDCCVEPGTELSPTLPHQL
Chain of Serine/threonine-protein kinase MARK1 (Homo sapiens) (Q9P0L2 whole entry, looked up): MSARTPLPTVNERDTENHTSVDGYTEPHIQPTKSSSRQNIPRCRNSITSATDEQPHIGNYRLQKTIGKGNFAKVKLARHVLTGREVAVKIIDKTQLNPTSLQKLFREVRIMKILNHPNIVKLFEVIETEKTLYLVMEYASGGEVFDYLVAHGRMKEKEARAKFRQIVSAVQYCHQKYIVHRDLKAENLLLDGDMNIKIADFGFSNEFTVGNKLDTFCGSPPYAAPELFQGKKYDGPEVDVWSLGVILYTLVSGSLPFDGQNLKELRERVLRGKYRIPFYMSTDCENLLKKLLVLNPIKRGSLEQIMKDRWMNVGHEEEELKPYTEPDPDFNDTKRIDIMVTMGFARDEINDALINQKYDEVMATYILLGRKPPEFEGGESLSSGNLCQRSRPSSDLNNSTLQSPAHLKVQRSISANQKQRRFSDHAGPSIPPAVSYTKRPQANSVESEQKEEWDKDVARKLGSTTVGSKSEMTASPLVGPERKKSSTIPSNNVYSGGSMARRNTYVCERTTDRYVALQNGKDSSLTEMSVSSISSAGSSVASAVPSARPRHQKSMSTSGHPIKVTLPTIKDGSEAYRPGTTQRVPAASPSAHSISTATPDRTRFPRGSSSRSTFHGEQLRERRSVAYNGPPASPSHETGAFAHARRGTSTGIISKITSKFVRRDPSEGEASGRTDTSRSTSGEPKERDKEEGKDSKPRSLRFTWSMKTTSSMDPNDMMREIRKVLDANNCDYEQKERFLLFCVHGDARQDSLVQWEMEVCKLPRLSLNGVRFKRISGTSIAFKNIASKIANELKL

% of control [1]: 100%
Structure (SMILES): CCN(CC)CCCCNc1ncc2cc(-c3cc(OC)cc(OC)c3)c(NC(=O)NC(C)(C)C)nc2n1

Structure (SMILES): CN(C)C/C=C/C(=O)Nc1ccc(C(=O)N2CCCC(Nc3ncc(Cl)c(-c4c[nH]c5ccccc45)n3)C2)cc1 (stereo not given)
% of control [2]: 100% | % of control [3]: 69%

Structure (SMILES): CN(C)CCOc1ccc(-c2nc(-c3ccncc3)c(-c3ccc4c(c3)CC/C4=N\O)[nH]2)cc1
% of control [4]: 88%

Structure (SMILES): N#Cc1cccc(-c2c[nH]c3ncnc(N4CCOCC4)c23)c1
% of inhibition [5]: 12%

Structure (SMILES): C=CC(=O)Nc1ccc(C(=O)Nc2[nH]nc3c2CN(C(=O)N[C@H](CN(C)C)c2ccccc2)C3(C)C)cc1
% of engagement [6]: 4.8%

% of inhibition [7]: -2.3%
Structure (SMILES): CC[C@@H]1[C@H](F)C(=O)N[C@@H]1COc1nccc2cc(C(N)=O)c(OC)cc12 [ZIMLOVISERTIB]

IC50 [8]: > 10 µM
Structure (SMILES): CCc1cccc(CC)c1NC(=O)c1nn(C)c2c1CCc1cnc(Nc3ccc(C(=O)NC4CCN(C)CC4)cc3OC(F)(F)F)nc1-2

XC50 (KCNE1): > 25.1 µM
Structure (SMILES): CCn1c(-c2nc3cc(C(=O)N4CCCC(N)C4)ccc3n2C)cc2ccccc21 (stereo not given)

Structure (SMILES): Cc1cc(F)c(C(=O)Nc2cccc(-c3nncn3C(C)C)n2)cc1-n1cnc(C2CC2)c1
% of control [9]: 83%

From ChEMBL document CHEMBL5465560, “Selectivity Literature for EUbOPEN Chemogenomic Library” (2024)
